Tests used:
[1] = Pharmacokinetic study of oral vs intra-cecal administration of tacrolimus: blood, rectal content, GI tissue and luminal content (Example 13); set-up: species or system Yorkshire-Cross farm swine; settings: female, Yorkshire-Cross, swine, in vivo, 0.09 mg/kg
Description: No further randomization procedure was employed.

[2] = test system: IL-6; settings: low dose PO group (15 mg/kg), by 12 h post-dose
[3] = test system: GM-CSF; experiment: GM-CSF in plasma and colon tissue by ELISA, DSS-induced colitis mouse model; assay type: in vivo, mice; settings: between IC and PO treatment groups, plasma or colon tissue (data not shown)

C=CC[C@@H]1/C=C(\C)C[C@H](C)C[C@H](OC)[C@H]2O[C@@](O)(C(=O)C(=O)N3CCCC[C@H]3C(=O)O[C@H](/C(C)=C/[C@@H]3CC[C@@H](O)[C@H](OC)C3)[C@H](C)[C@@H](O)CC1=O)[C@H](C)C[C@@H]2OC [tacrolimus]
Tissue(mean) (ng/g)/Trough(12 hr)(ng/mL) Ratio [1]: 0

C[C@@H]1CCN(C(=O)CC#N)C[C@@H]1N(C)c1ncnc2[nH]ccc12.O=C(O)CC(O)(CC(=O)O)C(=O)O [tofacitinib citrate]
IL-6 expression in colon tissue [2]: Recovery from IL-6 inhibition

C[C@@H]1CCN(C(=O)CC#N)C[C@@H]1N(C)c1ncnc2[nH]ccc12 [tofacitinib]
GM-CSF levels [3]: nor was there a significant difference

— US20230033021A1, “TREATMENT OF A DISEASE OF THE GASTROINTESTINAL TRACT WITH AN INTEGRIN INHIBITOR” (Progenity, Inc., priority 2018, published 2023)
